Experimental data reported in patent US7612079B2, “2,6,9-substituted purine derivatives and their use in the treatment of proliferative disorders” (Cyclacel Limited, priority 2001, dated 2009).
pIC50: −log10 of the molar value.

Tests used:
[1] = target: T1, cyclic AMP-dependent kinase (PKA) catalytic subunit (Homo sapiens, UniProt P17612); assay: PKA kinase assay (Kemptide phosphorylation); assay type: biochemical; details: Table 2; read-out: Kinase inhibition PKA IC50
T1 construct: purchased Calbiochem 539487
Description: The reaction mixture (total volume 50 μl) consisted of 20 mM MOPS, pH 7.2, 25 mM β-glycerophosphate, 5 mM EGTA, 1 mM DTT, 1 mM Na3VO4, 10 mM MgCl2, 100 μM ATP, 0.2 μCi [γ-^32P]-ATP.

mouse ERK-2 = target: T2, mouse ERK-2 (Mus musculus, UniProt P63085); assay: ERK-2 kinase assay (MBP phosphorylation); assay type: biochemical; details: Table 2; read-out: Kinase inhibition ERK2 IC50
T2 construct: purchased Upstate Biotechnologies
T2 sequence (P63085 whole entry): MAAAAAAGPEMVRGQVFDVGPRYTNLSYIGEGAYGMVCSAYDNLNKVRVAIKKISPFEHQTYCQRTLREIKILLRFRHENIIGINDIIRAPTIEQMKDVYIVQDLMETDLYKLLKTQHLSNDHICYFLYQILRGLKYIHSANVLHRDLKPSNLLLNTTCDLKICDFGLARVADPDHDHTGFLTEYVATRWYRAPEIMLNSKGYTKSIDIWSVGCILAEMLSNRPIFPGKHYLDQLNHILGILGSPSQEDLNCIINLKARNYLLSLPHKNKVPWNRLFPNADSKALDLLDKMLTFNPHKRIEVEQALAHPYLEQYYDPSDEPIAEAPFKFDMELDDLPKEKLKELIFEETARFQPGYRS
Description: ERK-2 kinase activity was measured by the incorporation of radioactive phosphate into myelin basic protein (MBP), catalysed by purified mouse ERK-2 (Upstate Biotechnologies). The reaction mixture (total volume 50 μL) consisted of 20 mM MOPS, pH 7.0,25 mM β-glycerophosphate, 5 mM EGTA, 1 mM DTT, 1 mM Na3VO4, 10 mM MgCl2, 100 μM ATP, 0.2 μCi [γ-^32P]-ATP.

A2780 = assay: 72-h MTT proliferation assay, A2780; assay type: cell-based; details: Homo sapiens, read-out: IC50 Cell line A2780
Excerpt: (§1) Selected compounds from the above examples were subjected to a standard cellular proliferation assay using seven different human tumour cell lines: A2780, A278CisF, CH1, CH1DoxR, HCT116, HT29 and KM12. […] Human tumour cell lines were obtained from the ATCC (American Type Culture Collection, 10801 University Boulevard, Manessas, Va. 20110-2209, USA). The results are shown in Table 1, together with the average IC50 over the seven different cell lines.

A2780 CisR = assay: 72-h MTT proliferation assay, A2780 CisR; assay type: cell-based; details: Homo sapiens, A2780cisR, read-out: IC50 Cell line A2780 CisR
Excerpt: as §1

CH1 = assay: 72-h MTT proliferation assay, CH1; assay type: cell-based; details: Homo sapiens, read-out: IC50 Cell line CH1
Excerpt: as §1

CH1DoxR = assay: 72-h MTT proliferation assay, CH1DoxR; assay type: cell-based; details: Homo sapiens, read-out: IC50 Cell line CH1DoxR
Excerpt: as §1

HCT116 = assay: 72-h MTT proliferation assay, HCT116; assay type: cell-based; details: Homo sapiens, HCT-116, read-out: IC50 Cell line HCT116
Excerpt: as §1

HT29 = assay: 72-h MTT proliferation assay, HT29; assay type: cell-based; details: Homo sapiens, HT-29, read-out: IC50 Cell line HT29
Excerpt: as §1

KM12 = assay: 72-h MTT proliferation assay, KM12; assay type: cell-based; details: Homo sapiens, read-out: IC50 Cell line KM12
Excerpt: as §1

[2] = test system: seven different human tumour cell lines: A2780, A278CisF, CH1, CH1DoxR, HCT116, HT29 and KM12; assay: 72-h MTT proliferation assay, average over seven cell lines; assay type: cell-based; details: read-out: IC50 Cell line Average
Excerpt: Selected compounds from the above examples were subjected to a standard cellular proliferation assay using seven different human tumour cell lines: A2780, A278CisF, CH1, CH1DoxR, HCT116, HT29 and KM12.

A549, HT29, Saos-2 = assay: In vitro anti-proliferative activity, 72-h MTT, A549, HT29, Saos-2; assay type: cell-based; details: read-out: In vitro anti-proliferative activity (72-h MTT IC50), Cell lines: A549, HT29, Saos-2
Aqueous solubility = assay type: physicochemical; details: remark in Table 1; versus Roscovitine
Excerpt: […]. […] […]

CDK4/cyclin D1 = CDK4/cyclin D1 (Homo sapiens, UniProt P11802); assay: CDK4/cyclin D1 kinase assay (GST-Rb phosphorylation); assay type: biochemical; details: Table 2; read-out: Kinase inhibition CDK4/cyclin D1 IC50
CDK4/cyclin D1, sequence (P11802 whole entry, species assumed): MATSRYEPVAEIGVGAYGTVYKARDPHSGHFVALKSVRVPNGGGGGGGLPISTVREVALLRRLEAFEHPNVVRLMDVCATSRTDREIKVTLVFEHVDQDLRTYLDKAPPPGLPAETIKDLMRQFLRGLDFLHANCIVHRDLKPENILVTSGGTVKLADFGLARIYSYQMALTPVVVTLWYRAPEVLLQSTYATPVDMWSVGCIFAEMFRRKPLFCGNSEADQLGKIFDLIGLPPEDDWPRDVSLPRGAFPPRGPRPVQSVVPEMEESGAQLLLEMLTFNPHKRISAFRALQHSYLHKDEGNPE
CDK4/cyclin D1, sequence (P24385 whole entry partner, species assumed): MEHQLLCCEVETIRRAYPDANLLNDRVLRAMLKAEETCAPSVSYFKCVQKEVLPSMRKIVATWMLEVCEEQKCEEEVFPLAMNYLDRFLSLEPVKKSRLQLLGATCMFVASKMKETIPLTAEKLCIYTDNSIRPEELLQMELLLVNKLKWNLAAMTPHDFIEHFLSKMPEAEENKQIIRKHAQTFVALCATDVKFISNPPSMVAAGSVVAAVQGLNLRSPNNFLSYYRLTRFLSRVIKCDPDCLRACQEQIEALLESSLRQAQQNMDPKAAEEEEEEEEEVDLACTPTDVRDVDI
Description: Assays for CDK2/cyclin E kinase, CDK1/cyclin B and CDK4/cyclin D1 may be carried out by monitoring phosphorylation of GST-Rb in an appropriate system. […] The phosphorylation reaction mixture (total volume 40 μl) consisted of 50 mM HEPES pH 7.4, 20 mM MgCl2, 5 mM EGTA, 2 mM DTT, 20 mM β-glycerophosphate, 2 mM NaF, 1 mM Na3VO4, Protease Inhibitors Cocktail (Sigma, see above), BSA 0.5 mg/ml, 1 μg purified enzyme complex, 10 μl of GST-Rb-Sepharose-beads, 100 μM ATP, 0.2 μCi ^32P-ATP. The reaction is carried out for 30 min at 30° C. at constant shaking. At the end of this period 100 μl of 50 mM HEPES, pH 7.4 and 1 mM ATP is added to each well and the total volume transferred onto GFC filtered plate. The plate is washed 5 times with 200 μl of 50 mM HEPES, pH 7.4 and 1 mM ATP. To each well was added 50 μl scintillant liquid and the radioactivity of the samples is measured on Scintilation counter (Topcount, HP). The IC50 values of different peptides were calculated using GraFit software.

CDK7/cyclin H = CDK7/cyclin H (Homo sapiens, UniProt P50613); assay: CDK7/cyclin H kinase inhibition; assay type: biochemical; details: Table 2
CDK7/cyclin H, sequence (P50613 whole entry, species assumed): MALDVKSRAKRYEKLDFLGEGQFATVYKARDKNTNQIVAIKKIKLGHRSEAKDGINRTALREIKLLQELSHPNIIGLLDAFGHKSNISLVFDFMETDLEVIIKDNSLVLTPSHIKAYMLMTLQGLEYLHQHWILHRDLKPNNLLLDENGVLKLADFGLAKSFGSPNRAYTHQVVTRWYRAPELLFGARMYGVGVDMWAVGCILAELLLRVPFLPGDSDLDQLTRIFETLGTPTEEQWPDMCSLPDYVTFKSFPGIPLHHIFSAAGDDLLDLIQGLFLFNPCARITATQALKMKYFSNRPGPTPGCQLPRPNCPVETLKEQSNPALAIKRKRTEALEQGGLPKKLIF
CDK7/cyclin H, sequence (P51946 whole entry partner, species assumed): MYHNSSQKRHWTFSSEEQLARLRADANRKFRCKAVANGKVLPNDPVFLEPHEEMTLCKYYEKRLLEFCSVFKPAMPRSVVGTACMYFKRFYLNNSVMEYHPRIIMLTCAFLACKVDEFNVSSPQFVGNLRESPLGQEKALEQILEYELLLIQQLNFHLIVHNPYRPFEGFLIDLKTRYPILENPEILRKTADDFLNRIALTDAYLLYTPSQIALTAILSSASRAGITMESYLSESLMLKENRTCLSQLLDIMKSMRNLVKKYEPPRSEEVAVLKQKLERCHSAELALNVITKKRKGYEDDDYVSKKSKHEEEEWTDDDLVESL

[3] = Pharmacokinetic analysis in mice

SMILES	pIC50 [1]	pIC50 (mouse ERK-2)	pIC50 (A2780)	pIC50 (A2780 CisR)	pIC50 (CH1)	pIC50 (CH1DoxR)	pIC50 (HCT116)	pIC50 (HT29)	pIC50 (KM12)	pIC50 [2]	pIC50 (A549, HT29, Saos-2)	PK remark: aqueous solubility (Aqueous solubility)	melting point [°C]	pIC50 (CDK4/cyclin D1)	pIC50 (CDK7/cyclin H)	AUC ([3]; mice, comparative value) [nh-h/mL]	half-life ([3]; mouse, in vivo) [h]
CC[C@H](CO)Nc1nc(NCc2ccccn2)c2ncn(C(C)C)c2n1 [Example 5, (R)-2-{9-Isopropyl-6-[(pyridin-2:ylmethyl)-amino]-9H-purin-2:ylamino}-butan-1-ol]	< 4.30	5.02	4.66	4.55	4.59	4.64	4.59	4.27	4.42	4.51	5.35	Improved aqueous solubility	30 to 35				
CC[C@H](CO)Nc1nc(NCc2ccncc2)c2ncn(C(C)C)c2n1 [Example 6, (R)-2-{9-Isopropyl-6-[(pyridin-4-ylmethyl)-amino]-9H-purin-2-ylamino}-butan-1-ol]	< 4.30		4.64	4.66	5.09	4.55	5.00	4.64	5.15	4.76	4.77	Improved aqueous solubility	105 to 106	4.52	6.13		
CC[C@H](CO)Nc1nc(NCc2ccccc2)c2ncn(C(C)C)c2n1 [Roscovitine]																75454	2.7
